Numbered stars: 1 amine (or outer) side, 2 acyl side, 3 side chain; on linkers, the order of the positions; unused ones are H or OH. Square brackets hold non-standard residues; d marks the D form. Side chains are listed from the residue outwards. Peptide text beside a SMILES is read from it. * marks the point of attachment. C20 diacid = O=C(O)CCCCCCCCCCCCCCCCCCC(=O)*; γGlu = O=C(O)[C@H](CCC(=O)[*:2])N[*:1]; AEEA = NCCOCCOCC(=O)O; Aib = CC(C)(N)C(=O)O

Results on three compounds are retold here after US20260201008A1, “SECRETIN-DERIVED GLP1R SELECTIVE AGONISTS” (GUBRA A/S, priority 2023, published 2026).

One data set concerns the target SCTR (Homo sapiens, UniProt P47872). Put plainly: hSCTR potency, cAMP accumulation in CHO-K1 cells stably overexpressing hSCTR. It counts as cell-based. The arrangement: alternatively Euroscreen ES-712-AF; FAST-0161L; host or cells: CHO-K1. As to conditions: cAMP accumulation, CHO-K1 cells overexpressing hSCTR; read-out: hSCTR pEC50 (converted). The gist of the method: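 Thawed CHO-K1 cells carrying stable hSCTR are plated into casein/IBMX buffer (0.05%, 0.5 mM), dosed immediately for 30 min at room temperature, then cAMP is detected by TR-FRET. Purified peptides run as 11 three-fold dilutions in duplicate, and curves are fitted with variable slope.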

The nature of data set [1]: Fibril formation of crude library peptides (Thioflavin T). It counts as physicochemical. The arrangement: key: average ThT fluorescence emission at 480 nm (ex 450 nm), raw units. As to conditions: Physical stability of peptides. The gist of the method:
(§1)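 Turbidity is the absorbance at 600 nm, taken before heating. Fibril signal is the mean ThT emission at 480 nm (450 nm excitation), read every 10 min over 72 h at 40° C with 700 rpm shaking between reads. Peptides at 267 μM, pH 4.0 acetate or pH 7.0 phosphate buffer (50 mM), 4 μM ThT final.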

Another data set addresses GLP1R (Homo sapiens, UniProt P43220). The experiment in a line: hGLP1R potency, cAMP accumulation in CHO-K1 cells stably overexpressing hGLP1R. The format is cell-based. The arrangement: host or cells: CHO-K1. As to conditions: for EC50: cAMP accumulation, CHO-K1 cells overexpressing hGLP1R, read-out: hGLP1R pEC50 (converted); for SCTR EC50/GLP1R EC50 ratio: selectivity for hGLP1R over hSCTR, cAMP accumulation in CHO-K1 cells. In short, it runs like this: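 2000 cells/well, DPBS + 0.05% casein + 0.5 mM IBMX; 30 min RT stimulation; HTRF cAMP detection after 1 h. Purified: 3-fold ×11, n=2; crude: 10-fold ×5, n=1. EC50 by variable-slope fit.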
Background: Changes in cAMP serve as a functional read-out for many G protein-coupled receptors.

The nature of data set [2]: Turbidity of crude library peptides (absorbance at 600 nm). Conditions: Physical stability of peptides. The format is physicochemical. The gist of the method:
as §1

Sequence of GLP1R (P43220 24-463): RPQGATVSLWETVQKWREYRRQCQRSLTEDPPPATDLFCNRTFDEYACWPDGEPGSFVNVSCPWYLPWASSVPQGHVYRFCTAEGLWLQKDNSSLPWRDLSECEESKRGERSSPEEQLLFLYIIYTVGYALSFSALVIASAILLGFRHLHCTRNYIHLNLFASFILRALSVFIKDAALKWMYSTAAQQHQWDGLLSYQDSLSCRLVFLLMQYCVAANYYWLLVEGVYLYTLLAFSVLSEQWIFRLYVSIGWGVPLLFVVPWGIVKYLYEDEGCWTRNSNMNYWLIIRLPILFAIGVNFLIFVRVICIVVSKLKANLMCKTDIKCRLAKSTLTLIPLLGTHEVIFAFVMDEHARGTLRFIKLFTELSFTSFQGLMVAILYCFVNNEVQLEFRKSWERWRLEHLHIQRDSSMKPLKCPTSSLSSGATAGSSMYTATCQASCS
Sequence of SCTR (P47872 23-440): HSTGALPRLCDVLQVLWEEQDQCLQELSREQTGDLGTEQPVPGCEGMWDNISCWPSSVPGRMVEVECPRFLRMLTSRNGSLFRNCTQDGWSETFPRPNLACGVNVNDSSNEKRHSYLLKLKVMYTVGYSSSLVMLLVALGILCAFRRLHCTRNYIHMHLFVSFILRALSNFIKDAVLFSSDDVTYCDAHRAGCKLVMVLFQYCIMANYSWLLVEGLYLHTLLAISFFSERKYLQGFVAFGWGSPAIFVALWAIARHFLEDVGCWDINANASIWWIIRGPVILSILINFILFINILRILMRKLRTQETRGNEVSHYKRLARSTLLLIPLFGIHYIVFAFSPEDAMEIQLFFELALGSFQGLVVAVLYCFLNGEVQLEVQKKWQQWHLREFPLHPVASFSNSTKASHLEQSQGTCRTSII

For the compound `CC(C)C[C@H](NC(=O)[C@H](C)NC(=O)[C@H](CCC(=O)O)NC(=O)[C@H](CCC(=O)O)NC(=O)[C@H](CCCCNC(=O)COCCOCCNC(=O)COCCOCCNC(=O)CC[C@H](NC(=O)CCCCCCCCCCCCCCCCCCC(=O)O)C(=O)O)NC(=O)[C@H](CC(C)C)NC(=O)[C@H](Cc1ccc(O)cc1)NC(=O)[C@H](CO)NC(=O)[C@@H](NC(=O)[C@H](CC(=O)O)NC(=O)[C@H](CO)NC(=O)[C@@H](NC(=O)[C@H](Cc1ccccc1)NC(=O)[C@@H](NC(=O)CNC(=O)[C@H](CCC(=O)O)NC(=O)C(C)(C)NC(=O)[C@@H](N)Cc1c[nH]cn1)[C@@H](C)O)[C@@H](C)O)C(C)C)C(=O)N[C@@H](CC(C)C)C(=O)N[C@@H](CCC(N)=O)C(=O)N[C@@H](CCCNC(=N)N)C(=O)N[C@@H](Cc1ccccc1)C(=O)N[C@@H](CC(C)C)C(=O)N[C@@H](CCC(=O)O)C(=O)N[C@@H](Cc1c[nH]cn1)C(=O)N[C@@H](CC(C)C)C(=O)N[C@H](C(N)=O)C(C)C` [compound 132] (H-H[Aib]EGTFTSDVSYLK([AEEA-AEEA-γGlu-C20 diacid])EEALLQRFLEHLV-NH2), the EC50 on SCTR is 200 nM. For the same compound, the Fibril formation in data set [1] worked out at 3358. Also, on GLP1R, the EC50 was 0.02 nM and the “SCTR EC50/GLP1R EC50 ratio” value stood at 10415. In addition, in data set [2], the “Turbidity (pH 7)” value was 0.08.

With `CC(C)C[C@H](NC(=O)[C@H](Cc1ccccc1)NC(=O)[C@H](CCCNC(=N)N)NC(=O)[C@H](CCC(N)=O)NC(=O)[C@H](CC(C)C)NC(=O)C(C)(C)NC(=O)[C@H](C)NC(=O)[C@H](CCC(=O)O)NC(=O)[C@H](CCC(=O)O)NC(=O)[C@H](CCCCNC(=O)COCCOCCNC(=O)COCCOCCNC(=O)CC[C@H](NC(=O)CCCCCCCCCCCCCCCCCCC(=O)O)C(=O)O)NC(=O)[C@H](CC(C)C)NC(=O)[C@H](Cc1ccc(O)cc1)NC(=O)[C@H](CO)NC(=O)[C@@H](NC(=O)[C@H](CC(=O)O)NC(=O)[C@H](CO)NC(=O)[C@@H](NC(=O)[C@H](Cc1ccccc1)NC(=O)[C@@H](NC(=O)CNC(=O)[C@H](CCC(=O)O)NC(=O)C(C)(C)NC(=O)[C@@H](N)Cc1c[nH]cn1)[C@@H](C)O)[C@@H](C)O)C(C)C)C(=O)N[C@@H](CCC(=O)O)C(=O)N[C@@H](Cc1ccccc1)C(=O)N[C@@H](CC(C)C)C(=O)N[C@H](C(N)=O)C(C)C` [compound 133] (H-H[Aib]EGTFTSDVSYLK([AEEA-AEEA-γGlu-C20 diacid])EEA[Aib]LQRFLEFLV-NH2), at SCTR, the EC50 was 398 nM. Also, in data set [1], the Fibril formation stood at 4303. For the same compound, at GLP1R, the EC50 is 0.0158 nM and the “SCTR EC50/GLP1R EC50 ratio” value was found to be 23332. Also, in data set [2], the “Turbidity (pH 7)” value came out at 0.08.

For the compound `CC(C)C[C@H](NC(=O)[C@H](Cc1ccccc1)NC(=O)[C@H](CCCNC(=N)N)NC(=O)[C@H](CCC(N)=O)NC(=O)[C@H](CO)NC(=O)C(C)(C)NC(=O)[C@H](C)NC(=O)[C@H](CCC(=O)O)NC(=O)[C@H](CCC(=O)O)NC(=O)[C@H](CCCCNC(=O)COCCOCCNC(=O)COCCOCCNC(=O)CC[C@H](NC(=O)CCCCCCCCCCCCCCCCCCC(=O)O)C(=O)O)NC(=O)[C@H](CC(C)C)NC(=O)[C@H](Cc1ccc(O)cc1)NC(=O)[C@H](CO)NC(=O)[C@@H](NC(=O)[C@H](CC(=O)O)NC(=O)[C@H](CO)NC(=O)[C@@H](NC(=O)[C@H](Cc1ccccc1)NC(=O)[C@@H](NC(=O)CNC(=O)[C@H](CCC(=O)O)NC(=O)C(C)(C)NC(=O)[C@@H](N)Cc1c[nH]cn1)[C@@H](C)O)[C@@H](C)O)C(C)C)C(=O)N[C@@H](CCC(=O)O)C(=O)N[C@@H](Cc1c[nH]cn1)C(=O)N[C@@H](CC(C)C)C(=O)N[C@H](C(N)=O)C(C)C` [compound 134] (H-H[Aib]EGTFTSDVSYLK([AEEA-AEEA-γGlu-C20 diacid])EEA[Aib]SQRFLEHLV-NH2), the EC50 on SCTR was 2510 nM. In data set [1], this compound registered a Fibril formation of 3061. Further, at GLP1R, the EC50 is 0.00794 nM and the “SCTR EC50/GLP1R EC50 ratio” value is 303145. Also, the “Turbidity (pH 7)” value in data set [2] worked out at 0.08.
